Measurements published in US20020037898A1, “Topical micronutrient delivery system and uses thereof” (priority 2000, published 2002).
Where two headings read alike, the source gives them in different places. Values belong to the compound of their own block, whether it stands above or below them.

Legend:
[1] = test system: endothelial cells of the blood capillaries; test: Erythematous response / vasodilation at the site of topical application
Method: (§1) After three days, skin was removed from both the site of application and from the abdomen of each animal, and the NAD content was analyzed.

[2] = physchem
Method: The lipophilicity is reported as log P values, where P refers to the octanol/water partition coefficient, described supra.
The Poct/w values for these compounds were determined in accordance with Hamisch, et al., J. Chromatog. […] In brief, this HPLC method determines capacity factor (“K′”) for each pronutrient, and also establishes a linear relationship between the logarithm of Poct/w and the logarithm of K′, for short chain pronutrients.

[3] = test system: endothelial cells of blood capillaries; test: Skin oxygen content by transcutaneous oxygen monitor after topical lotion; format: in vivo; details: lotion applied topically for thirty minutes, then removed
Description: In this experiment, a transcutaneous oxygen monitor has been used to determine oxygen content in the skin. A lotion containing the test compound was topically applied for thirty minutes. The lotion was then removed and the transcutaneous oxygen monitor was placed on the surface of the skin. […] Butyl benzoate was chosen as the co-ester.

[4] = test system: skin of hairless mice; test: Skin NAD content following topical application of niacin pronutrients; format: in vivo, female hairless mice (HRS-J); details: for Effect on NAD content of the abdomen (in words): where the pronutrient was not applied; for Skin NAD content of abdomen / Skin NAD content of abdomen, %: not the site of application; for Skin NAD content of abdomen: 1% in lotion applied to back once per day for three days; for Skin NAD content of abdomen / Skin NAD content of back: hairless mice; for Skin NAD content of abdomen, % / Skin NAD content of back, %: relative to lotion only = 100; for Skin NAD content of abdomen, %: 1% in lotion applied to back; for Skin NAD content of back, % / Skin NAD content of back: site of application, 1% in lotion; for Skin NAD content of back, %: once per day for three days; for Skin NAD content of back: topical once per day for three days; for Effect on skin NAD content at site of application (in words): topical application, back of hairless mice
Method: In animal experiments, female hairless mice (HRS-J, 6-8 weeks old), received daily topical application of nicotinic acid esters, using 200 mg of commercially available “Vanicream” lotion, at a 1.0% (wt/wt) concentration, for three days. Control animals received Vanicream only.
Animals were euthanized, and dorsal and ventral skin samples were then frozen in liquid nitrogen, and stored at −80° C. In order to analyze NAD and protein content, tissue samples were homogenized, in 0.5M, ice cold HClO4, and then centrifuged at 3000 rpm for 15 minutes. The resulting supernatants were neutralized with ice-cold 2M KOH/0.66M KH2PO4, in order to determine NAD. The NAD was determined in accordance with Jacobson, et al., Meth. Enzymol. 280: 221-230 (1997) incorporated by reference, while a commercially available BCA method was used for protein determination.

[5] = test system: endothelial cells of the blood capillaries; details: in vivo
Method: as §1

Erythematous Response [1]: Yes
Structure (SMILES): COC(=O)c1cccnc1 [1 carbon]

Erythematous Response [1]: No
Structure (SMILES): CCCCCCCCCCCCOC(=O)c1cccnc1 [12 carbons]
Effect on NAD content of the abdomen (in words) [4]: some delivery to the abdomen | Skin NAD content of abdomen [4]: 82.6 +/− 14.8 pmol NAD/mg tissue | Skin NAD content of abdomen, % [4]: 137% | Skin NAD content of back, % [4]: 141% | Skin NAD content of back [4]: 129.4 +/− 15.4 pmol NAD/mg tissue | Effect on skin NAD content at site of application (in words) [4]: increased NAD content

Erythematous Response [1]: No
Structure (SMILES): CCCCCCCCCCCCCOC(=O)c1cccnc1 [13 carbons]

Erythematous Response [1]: No
Structure (SMILES): CCCCCCCCCCCCCCOC(=O)c1cccnc1 [14 carbons]
Effect on NAD content of the abdomen (in words) [4]: no increase | Skin NAD content of abdomen [4]: 55.8 +/− 13.8 pmol NAD/mg tissue | Skin NAD content of abdomen, % [4]: 92% | Skin NAD content of back, % [4]: 181% | Skin NAD content of back [4]: 165.7 +/− 12.0 pmol NAD/mg tissue | Effect on skin NAD content at site of application (in words) [4]: most effective

Erythematous Response [1]: No
Structure (SMILES): CCCCCCCCCCCCCCCCCCOC(=O)c1cccnc1 [18 carbons]
Effect on skin NAD content at site of application (in words) [4]: less effective

Continued, compound first:

Structure (SMILES): CCCCOC(=O)c1cccnc1 [4 carbons]
Erythematous Response [1]: Yes

Structure (SMILES): CCCCCCCCOC(=O)c1cccnc1 [8 carbons, octyl nicotinate]
Erythematous Response [1]: Yes | chromatographic logP [2]: 4.8 | Skin oxygen content (PO2) [3]: increase in skin oxygen content

Structure (SMILES): CCCCCCCCCCOC(=O)c1cccnc1 [10 carbons]
Erythematous Response [1]: Slight

Structure (SMILES): CCCCCCCCCCCCCCCOC(=O)c1cccnc1 [15 carbons]
Erythematous Response [1]: No

Structure (SMILES): CCCCCCCCCCCCCCCCOC(=O)c1cccnc1 [16 carbons]
Effect on NAD content of the abdomen (in words) [4]: no increase | Skin NAD content of abdomen [4]: 52.1 +/− 10.4 pmol NAD/mg tissue | Skin NAD content of abdomen, % [4]: 86% | Skin NAD content of back, % [4]: 120% | Skin NAD content of back [4]: 109.5 +/− 8.3 pmol NAD/mg tissue | Effect on skin NAD content at site of application (in words) [4]: increased NAD content | Erythematous Response [1]: No

Structure (SMILES): NC(=O)c1cccnc1 [Nicotinamide, reference compound]
Effect on skin NAD content at site of application (in words) [4]: no effect | Erythematous Response [5]: No | Vasodilation at the site of topical application [5]: does not cause vasodilation | chromatographic logP [2]: -0.34
